Measurements as given in US20110301192A1, “Inhibitors of Cyclin Kinase Inhibitor p21” (The regents of the University of California, priority 2008, published 2011).
Entries after “also recorded” stand apart in the source; their conditions may differ.

Tests used:
[1] = system: kidney cancer cell lines; test: MTT cytotoxic assay in kidney cancer cell lines (FIG. 8); type: cell-based; conditions: kidney cancer cells; 1, 10 or 20 μM in complete media; 48 hr
Description: The kidney cancer cells were incubated in serum-free media for 16 hr and treated with vehicle (DMSO) and serum-containing complete media (CM) alone or the indicated compounds (at 1, 10 or 20 μM) in CM. After 48 hr, the MTT assay was performed as described below. The visible absorbance of each well was quantified using a microplate reader.
(§1) A 200 μL aliquot of cells (1×10^3 cells in quiescent media) was added to a 96 well plate and incubated for 18 hr at 37° C. in a humidified incubator containing 5% CO2 in air. After incubation, each condition of small molecule ligands (No. 4, 7, and 10) was added into each well for 48 hr and for synergic assay of Doxorubicin, after incubation for 6 hr with compound No. 10, Doxorubicin dissolved in DMSO was added to each of the 96 wells and incubated for 42 hr. Control cultures were treated with DMSO. After incubation, a 20 μL MTT solution (5 mg/mL in phosphate buffer) was added to each well and the incubation continued for 4 hr, after which time the solution in each well was carefully removed. The blue crystalline precipitate in each well was dissolved in DMSO 200 μL). The visible absorbance at 560 nm of each well was quantified using a microplate reader.

[2] = system: p27; test: Immunoblotting of p27 protein levels in RCC cells; type: cell-based, human; conditions: all concentrations examined (10, 50, 100 μM); immunoblot
Excerpt: (§2) Chemiluminescence was detected using enhanced ECL.

[3] = system: ACHN and A-498 cells; test: MTT synergy assay with doxorubicin; type: cell-based, human; conditions: 100 μM, after 6 h doxorubicin 0.1 and 0.25 μM for 42 h
Description: (§3) After 6 h, doxorubicin was added (0.1 and 0.25 μM) in serum containing media followed in 42 h by (a) the MTT assay as described below; and (b) immunoblotting with PARP, p21, and β-actin.
as §1

[4] = molecular target: T1, GST-tagged p21 recombinant protein (GST-p21) (Homo sapiens, UniProt P38936); test: Two-step OBOC bead screening with recombinant GST-p21; type: binding; conditions: OBOC beads, GST-p21 probe, GST-alone subtraction
T1 construct: purchased ProSpec-Tany TechnoGene Ltd. (Rehovot, Israel)
T1 sequence (P38936 whole entry): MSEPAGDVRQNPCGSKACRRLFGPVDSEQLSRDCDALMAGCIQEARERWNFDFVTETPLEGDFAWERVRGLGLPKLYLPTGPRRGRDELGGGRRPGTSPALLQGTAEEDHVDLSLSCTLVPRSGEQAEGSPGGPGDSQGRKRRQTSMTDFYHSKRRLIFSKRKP
Description: OBOC beads tethered with small molecule ligands were incubated with recombinant GST-p21 (or GST alone as control) and incubated with anti-GST antibodies conjugated with alkaline phosphatase. Blue beads in stage 2 were discarded and the true positive beads (i.e., clear beads in stage 2 which indicate binding only to p21) were picked up and submitted for MS decoding.
A two-step screening of the small molecule OBOC combinatorial library was performed using GST-tagged p21 recombinant protein (GST-p21) from ProSpec-Tany TechnoGene Ltd. (Rehovot, Israel) (FIG. 2). Screening was conducted in small disposable chromatography columns. Each screening used 25,000-30,000 beads that were first blocked with 0.1% BSA in PBS with 0.1% Tween 20 (PBST). In Stage 1 of the procedure, the beads were incubated with a 1:10,000 dilution of GST-p21, washed, incubated with anti-GST antibody conjugated with alkaline phosphatase (anti-GST-AP), washed, and incubated with the phosphatase substrate 5-bromo-4-chloro-3-indolyl-phosphate (BCIP). Beads became blue and were selected for next step. Stage 2 of the procedure was to remove the false positive beads that are interacting with GST and anti-GST-AP not p21. The beads from Stage 1 were incubated with 8 M guanidine-HCl for removing bound proteins and DMF for removing blue color followed by PBST washing and re-blocking with PBST. And then the beads were incubated with GST alone, washed, incubated with anti-GST-AP, washed, and incubated with the phosphatase substrate BCIP. From this step, the clear beads were considered true positive beads, therefore they were selected and deproteinated with 8 M guanidine-HCl prior to decoding with mass spectrometry.

[5] = system: ACHN and A-498 cells; test: Apoptosis by PARP cleavage (immunoblot) in RCC cells; conditions: up to 72 h
Description: Cells were harvested and immunoblotted with p57, p27, and p21. […] Cells were harvested and immunoblotted with PARP and p21. β-actin is a gel-loading control.
Cells were washed with PBS and lysed in lysis buffer (50 mM HEPES, 1% Triton X-100, 10 mM sodium pyrophosphate, 100 mM sodium fluoride, 4 mM EDTA) at 0° C. Cell lysates were centrifuged (13,000×g, 4° C., 20 min) and the supernatants were electrophoresed and immunoblotted. For immunoprecipitation, cell lysates were incubated with p21 antibody agarose-conjugate overnight at 4° C. and immunoprecipitates were washed five times with lysis buffer. The bound proteins were eluted with SDS sample buffer and elctophoresed and immnoblotted. The membranes were blocked in 5% non-fat dry milk for 1 hr at room temperature, and probed with appropriate antibodies. Membranes were then probed with HRP-tagged anti-mouse or anti-rabbit IgG antibodies diluted 1:5,000-1:15,000 in 5% non-fat dry milk for 1 hr at room temperature. Chemiluminescence was detected using enhanced ECL.

[6] = molecular target: T2, p21 (Homo sapiens, UniProt P38936); test: p21 ubiquitinylation (immunoprecipitation with p21 antibody, ubiquitin immunoblot); type: cell-based; conditions: ACHN and A-498 cells; 100 μM
T2 sequence (P38936 whole entry): as above
Description: ACHN and A-498 cells were incubated in serum-free media for 16 hr and treated or not treated with compound 10 (100 μM) for the indicated times. Cells were harvested and immunoprecipitated with p21 antibody-agarose conjugate and immuno-blotted with either p21 or ubiquitin. Ponceau-staining heavy chain of anti-p21-IgG was performed on the same lysate as loading control.
as §2

[7] = system: ACHN and A-498 cells; test: Apoptosis (PARP immunoblot) in combination with doxorubicin; type: cell-based, human; conditions: 100 μM, after 6 h doxorubicin 0.1 and 0.25 μM for 42 h
Description: as §3, §2

[8] = molecular target: T2, p21; test: p21 stability with cycloheximide or proteasome inhibitors (immunoblot); type: cell-based; conditions: ACHN and A-498 cells; 100 μM; with cycloheximide 10 μg/ml or proteasome inhibitors (lactacystin, LLnL, MG132, 20 μM)
Description: ACHN and A-498 cells were incubated in serum-free media for 16 hr and treated with (a) compound 10 (100 μM), cycloheximide (CHX, 10 μg/ml), or compound 10 plus CHX for the indicated time, or (b) three different proteasome inhibitors (lactascystin, 20 μM; LLnL, 20 μM; MG132, 20 μM) for 6 h and followed by incubation of compound 10 (100 μM) for the indicated time. The density ratio of p21/actin is shown. Q refers to cells incubated in serum-free media only; P refers to cells incubated with PDGF only.
as §2

[9] = system: ACHN and A-498 cells; test: MTT cytotoxic assay (cell viability) in RCC cell lines; type: cell-based, human; conditions: 10, 50 and 100 μM in complete media, 48 hr
Description: After 48 hr, the MTT assay was performed as described below. The visible absorbance of each well was quantified using a microplate reader.
ACHN and A498 human RCC cells (from ATCC) were maintained in MEM 1× media supplemented with 10% fetal bovine serum, 2 mM L-glutamine, 1 mM sodium pyruvate, 0.1 mM non-essential amino acid, and 0.75% sodium bicarbonate at 37° C. in a humidified incubator containing 5% CO2 in air.
as §1

[10] = system: p57; test: Immunoblotting of p57 protein levels in RCC cells; type: cell-based, human; conditions: all concentrations examined (10, 50, 100 μM); immunoblot
Excerpt: as §2

[11] = molecular target: T2, p21; test: Immunoblotting of p21 protein levels in RCC cells; type: cell-based; conditions: serum-starved ACHN and A-498 cells; 10, 50 and 100 μM; immunoblot
Excerpt: as §2

Row | Structure (SMILES) | cell survival / cell viability (MTT assay) [1] | p27 protein levels [2] | binding to p21 [4] | apoptosis as measured by PARP cleavage [5] | cell survival / cell viability (MTT assay) [9] | p57 protein levels [10] | p21 protein levels [11] | also measured
1 | Cc1ccccc1NC(=O)NC(CC(N)=O)c1ccc2c(c1)nc(-c1cccc(Oc3ccc(C(C)(C)C)cc3)c1)n2CCC1CCCCN1C (centres unmarked) [LLW38] | dose-dependent inhibition of cell survival; also recorded: decreasing cell viability | – | – | – | – | – | – | –
2 | CCN(CC)CCCn1c(-c2cccc(Oc3ccc(C(C)(C)C)cc3)c2)nc2cc(C(CC(N)=O)NC(=O)Nc3ccccc3C)ccc21 (centres unmarked) [LLW33] | dose-dependent inhibition of cell survival; also recorded: decreasing cell viability | – | – | – | – | – | – | –
3 | Cc1ccccc1NC(=O)NC(CC(N)=O)c1ccc2c(c1)nc(-c1cccc(Oc3ccc(C(C)(C)C)cc3)c1)n2CC[C@@H]1CCCN2CCCC[C@H]12 (some centres unmarked) [LLW40] | dose-dependent inhibition of cell survival; also recorded: decreasing cell viability | – | – | – | – | – | – | –
4 | Cc1ccccc1NC(=O)NC(CC(N)=O)c1ccc2c(c1)nc(-c1cccc(Oc3ccc(C(C)(C)C)cc3)c1)n2CCCN1CCC(C)CC1 (centres unmarked) [LLW39] | dose-dependent inhibition of cell survival; also recorded: decreasing cell viability | – | – | – | – | – | – | –
5 | Cc1ccccc1NC(=O)NC(CC(N)=O)c1ccc2c(c1)nc(-c1c3ccccc3cc3ccccc13)n2CCCN1CCCCC1C (centres unmarked) [No. 10] | – | no affect | p21-binding | increased | dose-dependent inhibition of cell survival; also recorded: decreased; also recorded: decreasing cell viability | no affect | markedly and specifically inhibited | cell survival in combination with doxorubicin (MTT assay) [3]: synergistic decrease in cell survival; also recorded: synergistic anti-proliferative activity; ubiquitinylation of p21 [6]: causes ubiquitinylation of p21; also recorded: p21 protein is bound by ubiquitin; apoptosis in combination with doxorubicin (PARP immunoblot) [7]: increase in apoptosis; p21 stability [8]: decreases p21 stability via a proteasome-mediated pathway
6 | Cc1ccccc1NC(=O)NC(CC(N)=O)c1ccc2c(c1)nc(-c1cccc(Oc3ccc(C(C)(C)C)cc3)c1)n2CCCN1CCCCC1C (centres unmarked) [LLW15] | dose-dependent inhibition of cell survival; also recorded: decreasing cell viability | – | – | – | – | – | – | –
7 | Cc1ccccc1NC(=O)NC(CC(N)=O)c1ccc2c(c1)nc(-c1cccc(Oc3ccc(C(C)(C)C)cc3)c1)n2CCCN1CCCC1 (centres unmarked) [LLW36] | dose-dependent inhibition of cell survival; also recorded: decreasing cell viability | – | – | – | – | – | – | –
8 | Cc1ccccc1NC(=O)NC(CC(N)=O)c1ccc2c(c1)nc(-c1cccc(Oc3ccc(C(C)(C)C)cc3)c1)n2C1CCN(Cc2ccccc2)CC1 (centres unmarked) [LLW42] | dose-dependent inhibition of cell survival; also recorded: decreasing cell viability | – | – | – | – | – | – | –
9 | Cc1ccc(C)c(-c2nc3cc(C(CC(N)=O)NC(=O)Nc4ccccc4C(C)(C)C)ccc3n2CCCN2CCCCC2C)c1 (centres unmarked) [No. 4] | – | no affect | p21-binding | increased | dose-dependent inhibition of cell survival; also recorded: decreased; also recorded: decreasing cell viability | no affect | markedly and specifically inhibited | –
10 | Cc1ccc(C)c(-c2nc3cc(C(CC(N)=O)NC(=O)Nc4ccccc4C)ccc3n2CCCN2CCCCC2C)c1 (centres unmarked) [No. 7] | – | no affect | p21-binding | increased | dose-dependent inhibition of cell survival; also recorded: decreased; also recorded: decreasing cell viability | no affect | markedly and specifically inhibited | –
